Experimental data from patent US10369089B2, “Iron oxide nanoparticles and methods of use thereof” (THE TRUSTEES OF THE UNIVERSITY OF PENNSYLVANIA, priority 2015, dated 2019).

Tests used:
[1] = system: gingival and palatal tissues; set-up: species or system Sprague-Dawley rats; conditions: rat, in vivo
From the text: Each group was provided with the National Institutes of Health cariogenic diet 2000 and 5% sucrose water ad libitum. The experiment proceeded for 3 weeks. All animals were weighed weekly and their physical appearance was noted daily. All animals gained weight equally among the experimental groups and remained in good health during the experimental period. At the end of the experimental period, the animals were sacrificed and the jaws were surgically removed and dissected. All of the jaws were defleshed and the teeth were prepared for caries scoring according to Larson's modification of Keyes' system disease (see Larson, Animal models in cariology: symposium and workshop proceedings special supplement of microbiology abstracts, 1981; Bowen, Odontology, 2013; […] et al., Infect Immun, 2014; Horev, ACS Nano, 2015). Determination of the caries score of the codified jaws was performed by one calibrated examiner. Furthermore, both the gingival and palatal tissues were collected and processed for hematoxylin and eosin (HE) staining for histopathological analysis.

[2] = system: insoluble and soluble EPS; test: EPS degradation within biofilms; type: cell-based, Streptococcus mutans UA159; conditions: 30 min after H2O2 exposure; vs control
From the text: Biofilms were formed on saliva-coated hydroxyapatite (sHA) surfaces (tooth enamel-like material) using Streptococcus mutans, a well-established biofilm-forming, acidogenic and matrix-producing oral pathogen (FIG. 9). The hydroxyapatite discs (surface area, 2.7±0.2 cm^2) were purchased from Clarkson Chromatography and the bacteria strain, Streptococcus mutans UA159, was purchased from ATCC. The biofilm method is based on the saliva-coated hydroxyapatite (sHA) disc model (see Xiao et al., PLoS Pathog. 2012; Klein et al., J Vis Exp. 2011; Falsetta et al., Infect Immun., 2014; Koo et al., J Bacteriol, 2010; Koo et al., J Antimicrob Chemother, 2003). […] The biofilms were collected and analyzed at specific time points (19 h, 29 h and 43 h) by means of confocal fluorescence imaging, microbiological and biochemical analyses (Xiao et al., PLoS Pathog. 2012; Klein et al., J Vis Exp. 2011; Falsetta et al., Infect Immun., 2014; Koo et al., J Bacteriol, 2010; Koo et al., J Antimicrob Chemother, 2003).
To investigate whether CAT-NP-mediated H2O2 catalysis and generation of free-radicals in situ can kill embedded bacteria and degrade the EPS-matrix within biofilms, the following experiments were performed. […] Biofilms treated with CAT-NPs (0.5 mg/ml) were immediately exposed to H2O2 (0.1 to 1%, v/v) and the number of viable cells and EPS content were determined (FIG. 13A and FIG. 14). […]

S. mutans biofilms = test: Biofilm disruption after twice daily topical treatment (confocal microscopy); type: cell-based, Streptococcus mutans UA159; conditions: CAT-NP 0.5 mg/ml, H2O2 1%, in vitro
From the text: To determine the retention and the spatial distribution of CAT-NPs within an intact biofilm 3D architecture, multiphoton confocal microscopy and computational analysis were used (Xiao et al., PLoS Pathog. 2012; Klein et al., J Vis Exp, 2011; Koo et al., J Bacteriol, 2010). The exopolysaccharides (EPS) (in red) were labeled using […] Alexa Fluor 647-labeled dextran conjugate (10 kDa; 647/668 nm; Molecular Probes Inc., Invitrogen Corp., Carlsbad, Calif., USA) and the bacterial cells (in green) were stained with 2.5 μM SYTO 9 (485/498 nm; Molecular Probes Inc.). The CAT-NPs (in white) were detected via their inherent non-linear optical property using multiphoton confocal microscopy (Xiao et al., PLoS Pathog, 2012; Klein et al., J Vis Exp, 2011; Liao et al., Adv Funct Mater, 2013; Koo et al., J Bacteriol, 2010; Liao et al., Adv Funct Mater, 2013). Imaging was performed using a Leica SP5 multiphoton confocal microscope with a 20× LPlan N (1.05 numerical aperture) water immersion objective lens. […] The confocal images were analyzed using software for simultaneous visualization and quantification of EPS, bacterial cells and CAT-NPs within the intact biofilms. […] COMSTAT and ImageJ were used for quantitative analysis as previously described (Xiao et al., PLoS Pathog. 2012; Klein et al., J Vis Exp. 2011; Koo et al., J Bacteriol, 2010). […]

dental caries = test: Rodent model of dental caries; type: in vivo, Sprague-Dawley rats; conditions: rats, topical twice-daily for 3 weeks; vs. vehicle control
Protocol: In brief, animal experiments were performed on a well-established rodent model of dental caries (Bowen, Odontology, 2013; […] et al., Infect Immun, 2014; Horev, ACS Nano, 2015; Koo et al., J Dent Res, 2005). Briefly, Sprague-Dawley rats, 15 days old, were purchased with their dams from Harlan Laboratories (Madison, Wis., USA) and screened for infection with S. mutans. Any animals infected with S. mutans prior to inoculation were removed from the study. The animals were then infected orally using an actively growing (mid-logarithmic) culture of S. mutans UA159 and their infection was checked via oral swabbing. Infected animals were randomly placed into four treatment groups (12 animals/group) and their teeth were treated topically using a custom-made applicator twice daily. The treatment groups included: […] Agents were applied topically (orally-delivered; 100 μL per rat) twice-daily for 3 weeks, with brief exposures (30 s) to simulate clinical use. Each group was provided with the National Institutes of Health cariogenic diet 2000 and 5% sucrose water ad libitum. The experiment proceeded for 3 weeks. All animals were weighed weekly and their physical appearance was noted daily. All animals gained weight equally among the experimental groups and remained in good health during the experimental period. […]

[3] = Degradation of purified glucans produced by GtfB and GtfD; type: biochemical; conditions: 0.1 M NaOAc pH 4.5, 37° C., 30 min
Protocol: Given that free-radicals produced from H2O2 catalysis can also degrade polysaccharides in vitro (Gao et al., Nanoscale, 2014), the amount of EPS in the CAT-NP-treated biofilms was analyzed following exposure to H2O2. For assessment of EPS degradation, 100 μg of (insoluble or soluble) glucans produced by purified glucosyltransferases (GtfB or GtfD) (Koo et al., Antimicrob Agents Chemother, 2002) were mixed with each of the treatment solutions (in 0.1 M NaOAc, pH 4.5) and incubated at 37° C. for 30 min. The glucans were manufactured as follows. Each of the Gtf enzymes (10 U) were mixed with a sucrose substrate buffer (100 mM sucrose, 20 μM dextran 9,000, 50 mM KCl, 1.0 mM KPO4, 1.0 mM CaCl2 and 0.1 mM MgCl2, pH 6.5) and incubated for 4 h at 37° C. After incubation, the glucans produced were collected by centrifugation, washed and the total amounts were determined by standard phenol-sulfuric acid colorimetric assay (Koo et al., J Antimicrob Chemother, 2003; Koo et al., Antimicrob Agents Chemother, 2002). One hundred micrograms of glucan was mixed with each of the treatment solutions (total reaction volume of 300 μl in 0.1 M NaOAc, pH 4.5) and incubated at 37° C. for 30 min with rocking. After incubation, the amount of reducing sugars was determined by Somogyi-Nelson colorimetric assay.

## OO [H2O2, hydrogen peroxide]
[1]
  cytotoxic effects in gingival and palatal tissues (histopathology): no cytotoxic effects
[2]
  amounts of insoluble and soluble EPS within biofilms: inability to reduce EPS within biofilms
S. mutans biofilms
  biofilm disruption (accumulation of bacterial cells and EPS-matrix): limited anti-biofilm effects
Dental caries
  initiation and severity of carious lesions (caries scoring): without significant effect
[3]
  degradation of glucans from GtfB and GtfD (glucose released): failed to cleave either glucan

## iron oxide nanoparticles [IO-NPs]
[1]
  cytotoxic effects in gingival and palatal tissues (histopathology): no cytotoxic effects
